Laboratory results published in patent US20160039825A1 (BIOGEN MA INC., priority 2013, published 2016).

What follows are compounds tested against T1, Human ATX protein (Homo sapiens, UniProt Q13822) (assay: Autotaxin (ATX) assay, FRET with FS-3 substrate). Settings: 10 uM compound.
T1 construct: made in house
Format: biochemical
Method in brief: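 Hydrolysis of the FRET substrate FS-3 (2 μM final) unquenches fluorescein, read at excitation 485 nm and emission 538 nm after 2 h at room temperature, protected from light. Purified human ATX (1.0 μg/mL) and compound were first incubated for 30 min in pH 7.4 Tris/salt buffer containing 1 mg/mL fatty acid-free BSA.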

Row | SMILES | inhibition at 10 µM [%]
1 | O=C(OCc1cc(C(F)(F)F)cc(C(F)(F)F)c1)N1CCCn2nc(CO)cc2C1 [Example 282, 3,5-bis(trifluoromethyl)benzyl 2-(hydroxymethyl)-7,8-dihydro-4H-pyrazolo[1,5-a][1,4]diazepine-5(6H)-carboxylate] | 60

Same assay, conditions: upper bound bins (no greater than 100, 250 or 500 nM); FS-3 2 μM, ATX 1.0 μg/mL

Row | SMILES | IC50 [nM]
2 | CN1CCN(c2cc3n(n2)CCCN(C(=O)OCc2cc(C(F)(F)F)cc(C(F)(F)F)c2)C3)CC1 [Example 338, 3,5-bis(trifluoromethyl)benzyl 2-(4-methylpiperazin-1-yl)-7,8-dihydro-4H-pyrazolo[1,5-a][1,4]diazepine-5(6H)-carboxylate] | ≤ 100
3 | CC(C)(C)C1CC(Nc2cc3n(n2)CCCN(C(=O)OCc2cc(C(F)(F)F)cc(C(F)(F)F)c2)C3)CCN1 (centres unmarked) [Example 319] | ≤ 100
4 | CC1(C)CC(Nc2cc3n(n2)CCCN(C(=O)OCc2cc(C(F)(F)F)cc(C(F)(F)F)c2)C3)CCN1 (centres unmarked) [Example 320] | ≤ 100
5 | CC1(C)CNCCN1C(=O)c1cc2n(n1)CCCN(C(=O)OCc1cc(C(F)(F)F)cc(C(F)(F)F)c1)C2 [Example 239] | ≤ 100
6 | O=C(OCc1cc(Cl)cc(C(F)(F)F)c1)N1CCCn2nc(CNC3=NCCN3)cc2C1 [Example 154, 3-chloro-5-(trifluoromethyl)benzyl 2-(((4,5-dihydro-1H-imidazol-2-yl)amino)methyl)-7,8-dihydro-4H-pyrazolo[1,5-a][1,4]diazepine-5(6H)-carboxylate] | ≤ 250
7 | O=C(OCc1cc(C(F)(F)F)cc(C(F)(F)F)c1)N1CCCn2nc(C(=O)N3CCNCC34CCC4)cc2C1 [Example 235] | ≤ 100
8 | NC(C(=O)O)c1cc2n(n1)CCCN(C(=O)OCc1cc(C(F)(F)F)cc(C(F)(F)F)c1)C2 (centres unmarked) [Example 390, 2-Amino-2-(5-(((3,5-bis(trifluoromethyl)benzyl)oxy)carbonyl)-5,6,7,8-tetrahydro-4H-pyrazolo[1,5-a][1,4]diazepin-2-yl)acetic acid] | ≤ 100
9 | CCOC(=O)c1cc2n(n1)CCCN(C(=O)OCCc1cc(C(F)(F)F)cc(C(F)(F)F)c1)C2 [Example 141, 5-(3,5-Bis(trifluoromethyl)phenethyl) 2-ethyl 7,8-dihydro-4H-pyrazolo[1,5-a][1,4]diazepine-2,5(6H)-dicarboxylate] | ≤ 500
10 | CN1CCN(C(=O)c2cc3n(n2)CCCN(C(=O)OCc2cc(Cl)cc(C(F)(F)F)c2)C3)C2(CC2)C1 [Example 180] | ≤ 100
11 | O=C(N[C@H]1CC[C@H](C(=O)O)CC1)c1cc2n(n1)CCCN(C(=O)OCc1cc(Cl)cc(Cl)c1)C2 [Example 86, (trans)-4-(5-(((3,5-Dichlorobenzyl)oxy)carbonyl)-5,6,7,8-tetrahydro-4H-pyrazolo[1,5-a][1,4]diazepine-2-carboxamido)cyclohexanecarboxylic acid] | ≤ 250
12 | CN1CCN(C(=O)c2cc3n(n2)CCCN(C(=O)OCc2cc(Cl)cc(C(F)(F)F)c2)C3)C2(CCC2)C1 [Example 174] | ≤ 100
13 | CC(C)(C)OC(=O)N1CCN(C(=O)c2cc3n(n2)CCN(C(=O)OCc2cc(C(F)(F)F)cc(C(F)(F)F)c2)C3)CC1 [Example 486] | ≤ 100
14 | Cc1cc2n(n1)CCCN(C(=O)OCc1cc(Cl)cc(Cl)c1)C2 [Example 130, 3,5-Dichlorobenzyl 2-methyl-7,8-dihydro-4H-pyrazolo[1,5-a][1,4]diazepine-5(6H)-carboxylate] | ≤ 500
15 | CC1CN(C(=O)OC(C)(C)C)CC(C)N1C(=O)c1cc2n(n1)CCN(C(=O)OCc1cc(C(F)(F)F)cc(C(F)(F)F)c1)C2 (centres unmarked) [Example 476] | ≤ 100
16 | O=C(NC1CCC1)c1cc2n(n1)CCCN(C(=O)OCc1cc(Cl)cc(Cl)c1)C2 [Example 15, 3,5-Dichlorobenzyl 2-(cyclobutylcarbamoyl)-7,8-dihydro-4H-pyrazolo[1,5-a][1,4]diazepine-5(6H)-carboxylate] | ≤ 100
17 | CN1C2CCC1CC(c1cc3n(n1)CCCN(C(=O)OCc1cc(C(F)(F)F)cc(C(F)(F)F)c1)C3)C2 (centres unmarked) [Example 381] | ≤ 100
